Experimental data from ChEMBL document CHEMBL1201862, “PubChem BioAssay data set” (2004).
The source made the active and inactive calls.

What was measured:
[1] = molecular target: DNA dC->dU-editing enzyme APOBEC-3A (Homo sapiens, UniProt P31941); test: A3A deaminase inhibition for selectivity – biochemical, dose response (AID 504722); format: functional
[2] = molecular target: DNA dC->dU-editing enzyme APOBEC-3G (Homo sapiens, UniProt Q9HC16); test: Dose Response confirmation of small molecule APOBEC3G DNA Deaminase Inhibitors via a fluorescence-based single-stranded DNA deaminase assay. [Related pubchem assays (depositor defined):AID493012, AID493028]; format: functional
[3] = molecular target: T1, Mannose-6-phosphate isomerase (Homo sapiens, UniProt P34949); test: MPI enzyme activity inhibition – biochemical, fluorescence intensity, coupled assay, primary screen (AID 1209)
T1 sequence (P34949 whole entry): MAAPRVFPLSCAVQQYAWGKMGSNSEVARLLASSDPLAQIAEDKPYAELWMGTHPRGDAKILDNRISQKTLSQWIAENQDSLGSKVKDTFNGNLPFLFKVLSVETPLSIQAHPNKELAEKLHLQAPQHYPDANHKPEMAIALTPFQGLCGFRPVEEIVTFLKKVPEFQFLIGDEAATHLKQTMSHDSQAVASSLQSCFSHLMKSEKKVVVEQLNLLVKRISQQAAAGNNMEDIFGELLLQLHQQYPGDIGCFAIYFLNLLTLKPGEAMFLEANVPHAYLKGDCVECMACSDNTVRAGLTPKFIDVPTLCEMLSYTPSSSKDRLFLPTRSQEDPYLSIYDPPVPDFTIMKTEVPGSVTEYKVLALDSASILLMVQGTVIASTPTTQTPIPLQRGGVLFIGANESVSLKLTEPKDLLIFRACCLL

[4] = molecular target: T1, Mannose-6-phosphate isomerase; test: phosphomannose isomerase inhibition – biochemical, fluorescence intensity, confirmation (AID 1535)
[5] = molecular target: Phosphomannomutase 2 (Homo sapiens, UniProt O15305); test: Counter screen SAR assay for PMM2 inhibitors via a fluorescence intensity assay. [Related pubchem assays (depositor defined):AID1545, AID1574]
[6] = fluconazole-exposed Candida albicans growth modulators – fluorescence, retest, confirmation (AID 2467); format: functional, cell-based
[7] = MIN6 cell viability loss – mouse insulinoma, cytotoxicity control, dose response (AID 2122); format: functional;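 further: confirmatory high-throughput counterscreen run to flag cytotoxic compounds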
[8] = decrease of insulin promoter-GFP reporter – imaging, high-content screening, mouse beta cells (AID 1628); format: functional; conditions: MIN6
[9] = NIH-3T3 fibroblast cytotoxicity, dose response, cytotoxicity control, cell-based, fluorescence, Alamar Blue, secondary assay (AID 2327); format: functional;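 further: NIH-3T3 mouse fibroblasts cultured with fluconazole at 8 µg/mL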
[10] = Luminescence Cell-Based Dose Retest to Confirm Inhibitors of Cancer Stem Cells. [Related pubchem assays (depositor defined):AID2717, AID2721]; format: functional; conditions: Homo sapiens
[11] = molecular target: Microphthalmia-associated transcription factor (Homo sapiens, UniProt O75030); test: reducers of TRPM1 reporter luminescence, concentration series – cell-based, SK-MEL-5, cherry-picked, set 3, MITF inhibitor project, dose response (AID 493073); format: functional;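 further: SK-MEL-5 melanoma cells with luciferase driven by the MITF target TRPM1 promoter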
[12] = system: A-375; test: proliferation inhibition in MITF-low A375 cells – cell-based, cherry-pick samples, set 2, counter-screen for MITF modulator project, dose response (AID 540335); format: functional; conditions: Homo sapiens
[13] = system: INS1; test: INS-1E survival protection against cytokine death – cell-based, luminescence, retest, dose response (AID 449756); format: functional; conditions: Rattus norvegicus;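 further: cell death triggered by IL-1 beta plus TNF-alpha plus IFN-gamma mixture; protective hits raise ATP signal compared with cytokine alone wells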
[14] = molecular target: Genome polyprotein (dengue virus type 2, UniProt P29990); test: flavivirus cap methylation enzyme inhibition – biochemical, confirmation dose response, primary screen (AID 588689); format: functional
[15] = molecular target: Keap1/Nrf2 (Homo sapiens, UniProt Q14145); test: disruptors of Keap1 binding to Nrf2 peptide – biochemical, fluorescence polarization, cherry-picked samples, dose response (AID 588683)
[16] = molecular target: T2, Aminopeptidase N (Plasmodium falciparum FcB1/Columbia, UniProt O96935); test: malaria alanyl aminopeptidase activity blockers – biochemical, fluorogenic H-Leu-NHMec substrate, 1536-well (AID 1445); design: species or system Plasmodium falciparum 3D7, 3D7
T2 sequence (O96935 whole entry): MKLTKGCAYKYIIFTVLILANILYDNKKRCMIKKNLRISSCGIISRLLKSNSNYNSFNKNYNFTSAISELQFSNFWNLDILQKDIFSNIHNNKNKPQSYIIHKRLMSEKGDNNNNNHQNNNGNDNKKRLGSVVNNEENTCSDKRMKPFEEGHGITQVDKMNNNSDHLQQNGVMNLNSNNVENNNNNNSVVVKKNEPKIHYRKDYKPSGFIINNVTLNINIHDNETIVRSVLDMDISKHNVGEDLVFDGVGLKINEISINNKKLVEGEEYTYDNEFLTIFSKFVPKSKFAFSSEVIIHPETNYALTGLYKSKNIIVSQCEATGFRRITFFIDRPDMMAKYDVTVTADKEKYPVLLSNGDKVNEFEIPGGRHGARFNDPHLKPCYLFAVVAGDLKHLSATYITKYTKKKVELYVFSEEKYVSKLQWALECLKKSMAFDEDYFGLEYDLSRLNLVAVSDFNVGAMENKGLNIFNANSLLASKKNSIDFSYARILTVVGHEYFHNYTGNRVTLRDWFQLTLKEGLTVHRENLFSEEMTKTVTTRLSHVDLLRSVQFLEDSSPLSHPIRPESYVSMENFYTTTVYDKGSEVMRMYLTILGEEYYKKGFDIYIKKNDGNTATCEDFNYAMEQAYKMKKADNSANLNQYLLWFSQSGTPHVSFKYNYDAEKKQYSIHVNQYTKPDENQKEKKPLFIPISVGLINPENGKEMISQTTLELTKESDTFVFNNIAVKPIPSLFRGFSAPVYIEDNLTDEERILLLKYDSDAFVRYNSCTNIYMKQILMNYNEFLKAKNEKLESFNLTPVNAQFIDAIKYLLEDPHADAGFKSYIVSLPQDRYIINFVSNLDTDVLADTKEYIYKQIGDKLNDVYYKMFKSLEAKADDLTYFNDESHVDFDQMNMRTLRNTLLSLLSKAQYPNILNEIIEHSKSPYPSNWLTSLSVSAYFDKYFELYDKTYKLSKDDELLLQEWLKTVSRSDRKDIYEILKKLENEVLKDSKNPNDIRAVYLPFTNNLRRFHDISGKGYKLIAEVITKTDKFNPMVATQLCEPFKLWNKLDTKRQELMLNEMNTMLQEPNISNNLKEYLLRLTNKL

[17] = molecular target: Induced myeloid leukemia cell differentiation protein Mcl-1 (Homo sapiens, UniProt Q07820); format: functional
[18] = system: HEK293; test: cells; conditions: Homo sapiens
[19] = system: HEK293; test: cells; conditions: Homo sapiens; remark: listed apart in the source
[20] = molecular target: Lysine-specific demethylase 4C (Homo sapiens, UniProt Q9H3R0); test: inhibition of JMJD2C H3K9me3 demethylation – biochemical, DELFIA europium, cherry-picked samples, dose response (AID 488835); format: functional
Chain of Lysine-specific demethylase 4C (Q9H3R0 whole entry): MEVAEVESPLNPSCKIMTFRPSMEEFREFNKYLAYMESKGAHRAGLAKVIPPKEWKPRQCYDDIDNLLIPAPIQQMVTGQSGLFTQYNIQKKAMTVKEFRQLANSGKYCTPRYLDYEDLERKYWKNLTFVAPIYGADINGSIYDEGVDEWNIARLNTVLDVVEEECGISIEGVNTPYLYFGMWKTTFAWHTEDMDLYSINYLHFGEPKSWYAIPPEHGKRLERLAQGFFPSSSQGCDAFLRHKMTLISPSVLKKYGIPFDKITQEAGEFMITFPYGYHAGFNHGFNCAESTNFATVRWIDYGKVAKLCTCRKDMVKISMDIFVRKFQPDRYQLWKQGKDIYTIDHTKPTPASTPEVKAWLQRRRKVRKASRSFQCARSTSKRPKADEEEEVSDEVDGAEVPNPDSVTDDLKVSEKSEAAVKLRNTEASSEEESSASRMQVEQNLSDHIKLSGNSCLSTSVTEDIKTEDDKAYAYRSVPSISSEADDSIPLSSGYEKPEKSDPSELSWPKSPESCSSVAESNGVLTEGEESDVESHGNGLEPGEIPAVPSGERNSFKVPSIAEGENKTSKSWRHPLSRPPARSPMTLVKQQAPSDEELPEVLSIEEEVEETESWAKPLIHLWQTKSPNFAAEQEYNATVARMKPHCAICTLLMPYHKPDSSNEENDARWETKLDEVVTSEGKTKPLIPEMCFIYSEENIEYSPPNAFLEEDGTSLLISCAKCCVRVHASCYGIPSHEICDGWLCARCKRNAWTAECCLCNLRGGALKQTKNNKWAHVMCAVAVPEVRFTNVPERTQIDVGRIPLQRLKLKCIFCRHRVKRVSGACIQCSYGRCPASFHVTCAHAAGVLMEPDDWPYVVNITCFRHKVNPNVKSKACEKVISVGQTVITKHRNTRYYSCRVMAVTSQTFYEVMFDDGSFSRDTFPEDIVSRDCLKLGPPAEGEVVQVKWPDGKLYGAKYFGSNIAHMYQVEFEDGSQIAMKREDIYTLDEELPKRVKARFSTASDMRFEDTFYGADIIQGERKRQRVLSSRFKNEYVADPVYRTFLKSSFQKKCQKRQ

Chain of Microphthalmia-associated transcription factor (O75030 whole entry): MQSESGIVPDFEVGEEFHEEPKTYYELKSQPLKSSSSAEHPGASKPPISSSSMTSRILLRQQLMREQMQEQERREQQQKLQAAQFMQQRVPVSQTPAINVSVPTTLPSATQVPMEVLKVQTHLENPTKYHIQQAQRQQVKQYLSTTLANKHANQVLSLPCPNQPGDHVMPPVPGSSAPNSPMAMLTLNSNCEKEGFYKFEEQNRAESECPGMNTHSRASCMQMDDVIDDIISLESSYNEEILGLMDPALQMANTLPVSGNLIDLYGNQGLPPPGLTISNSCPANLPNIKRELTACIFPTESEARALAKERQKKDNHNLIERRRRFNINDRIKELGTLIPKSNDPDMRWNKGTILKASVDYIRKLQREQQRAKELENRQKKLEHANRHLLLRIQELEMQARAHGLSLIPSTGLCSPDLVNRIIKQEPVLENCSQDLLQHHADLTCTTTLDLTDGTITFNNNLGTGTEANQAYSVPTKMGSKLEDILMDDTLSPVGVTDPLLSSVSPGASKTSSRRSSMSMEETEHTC
Chain of Keap1/Nrf2 (Q16236 whole entry): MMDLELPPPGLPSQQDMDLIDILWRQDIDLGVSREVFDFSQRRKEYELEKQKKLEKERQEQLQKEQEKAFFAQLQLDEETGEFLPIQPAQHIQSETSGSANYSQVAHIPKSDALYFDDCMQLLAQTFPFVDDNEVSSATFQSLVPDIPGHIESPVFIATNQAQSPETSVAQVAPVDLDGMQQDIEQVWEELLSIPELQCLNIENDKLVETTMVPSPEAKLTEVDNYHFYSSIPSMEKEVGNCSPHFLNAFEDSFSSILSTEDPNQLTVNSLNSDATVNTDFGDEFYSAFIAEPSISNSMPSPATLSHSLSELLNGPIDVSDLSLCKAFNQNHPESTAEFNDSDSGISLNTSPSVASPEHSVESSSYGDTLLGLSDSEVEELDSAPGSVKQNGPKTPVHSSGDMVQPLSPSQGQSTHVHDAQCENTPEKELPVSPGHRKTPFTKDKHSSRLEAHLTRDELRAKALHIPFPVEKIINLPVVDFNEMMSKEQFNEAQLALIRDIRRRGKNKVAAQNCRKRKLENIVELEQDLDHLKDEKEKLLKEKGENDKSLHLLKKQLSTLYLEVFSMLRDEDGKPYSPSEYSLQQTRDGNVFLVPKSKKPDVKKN
Chain of Keap1/Nrf2 (Q14145 whole entry): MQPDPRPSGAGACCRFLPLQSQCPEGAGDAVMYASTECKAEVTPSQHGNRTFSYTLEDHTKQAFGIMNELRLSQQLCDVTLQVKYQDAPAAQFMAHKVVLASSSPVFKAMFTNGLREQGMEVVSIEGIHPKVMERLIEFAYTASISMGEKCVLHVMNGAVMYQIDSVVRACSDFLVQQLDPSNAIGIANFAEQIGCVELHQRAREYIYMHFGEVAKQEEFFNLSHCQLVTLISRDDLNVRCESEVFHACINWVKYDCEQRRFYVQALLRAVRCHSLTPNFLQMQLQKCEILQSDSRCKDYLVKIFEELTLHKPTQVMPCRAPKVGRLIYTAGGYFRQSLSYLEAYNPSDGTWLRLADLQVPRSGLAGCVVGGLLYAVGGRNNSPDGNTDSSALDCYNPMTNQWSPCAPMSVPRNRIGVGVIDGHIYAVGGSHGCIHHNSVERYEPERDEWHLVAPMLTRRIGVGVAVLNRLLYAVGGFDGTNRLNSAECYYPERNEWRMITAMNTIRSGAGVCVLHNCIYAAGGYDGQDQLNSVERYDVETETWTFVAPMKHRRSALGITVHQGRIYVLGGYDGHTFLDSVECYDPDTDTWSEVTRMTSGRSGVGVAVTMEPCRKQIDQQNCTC
Chain of Induced myeloid leukemia cell differentiation protein Mcl-1 (Q07820 whole entry): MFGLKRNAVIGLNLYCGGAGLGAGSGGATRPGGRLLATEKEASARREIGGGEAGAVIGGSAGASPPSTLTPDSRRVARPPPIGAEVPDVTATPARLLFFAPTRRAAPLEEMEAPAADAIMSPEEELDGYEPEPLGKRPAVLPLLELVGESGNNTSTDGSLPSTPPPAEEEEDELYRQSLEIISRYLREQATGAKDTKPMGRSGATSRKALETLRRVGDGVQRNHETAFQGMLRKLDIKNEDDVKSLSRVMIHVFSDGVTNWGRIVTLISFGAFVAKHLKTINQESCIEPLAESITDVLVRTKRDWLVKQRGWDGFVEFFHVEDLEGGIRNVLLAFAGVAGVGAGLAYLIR
Chain of DNA dC->dU-editing enzyme APOBEC-3G (Q9HC16 whole entry): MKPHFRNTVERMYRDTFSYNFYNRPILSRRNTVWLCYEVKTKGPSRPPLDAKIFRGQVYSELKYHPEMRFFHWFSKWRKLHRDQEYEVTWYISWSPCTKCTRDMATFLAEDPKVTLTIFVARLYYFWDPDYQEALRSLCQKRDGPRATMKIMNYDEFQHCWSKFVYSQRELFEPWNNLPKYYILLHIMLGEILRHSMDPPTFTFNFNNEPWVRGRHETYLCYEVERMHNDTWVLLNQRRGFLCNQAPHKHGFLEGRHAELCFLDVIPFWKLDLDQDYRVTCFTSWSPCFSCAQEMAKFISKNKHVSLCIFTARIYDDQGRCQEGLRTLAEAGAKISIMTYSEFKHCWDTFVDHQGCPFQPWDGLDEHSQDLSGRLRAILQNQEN
Chain of Genome polyprotein (P29990 2492-3391 limits assumed): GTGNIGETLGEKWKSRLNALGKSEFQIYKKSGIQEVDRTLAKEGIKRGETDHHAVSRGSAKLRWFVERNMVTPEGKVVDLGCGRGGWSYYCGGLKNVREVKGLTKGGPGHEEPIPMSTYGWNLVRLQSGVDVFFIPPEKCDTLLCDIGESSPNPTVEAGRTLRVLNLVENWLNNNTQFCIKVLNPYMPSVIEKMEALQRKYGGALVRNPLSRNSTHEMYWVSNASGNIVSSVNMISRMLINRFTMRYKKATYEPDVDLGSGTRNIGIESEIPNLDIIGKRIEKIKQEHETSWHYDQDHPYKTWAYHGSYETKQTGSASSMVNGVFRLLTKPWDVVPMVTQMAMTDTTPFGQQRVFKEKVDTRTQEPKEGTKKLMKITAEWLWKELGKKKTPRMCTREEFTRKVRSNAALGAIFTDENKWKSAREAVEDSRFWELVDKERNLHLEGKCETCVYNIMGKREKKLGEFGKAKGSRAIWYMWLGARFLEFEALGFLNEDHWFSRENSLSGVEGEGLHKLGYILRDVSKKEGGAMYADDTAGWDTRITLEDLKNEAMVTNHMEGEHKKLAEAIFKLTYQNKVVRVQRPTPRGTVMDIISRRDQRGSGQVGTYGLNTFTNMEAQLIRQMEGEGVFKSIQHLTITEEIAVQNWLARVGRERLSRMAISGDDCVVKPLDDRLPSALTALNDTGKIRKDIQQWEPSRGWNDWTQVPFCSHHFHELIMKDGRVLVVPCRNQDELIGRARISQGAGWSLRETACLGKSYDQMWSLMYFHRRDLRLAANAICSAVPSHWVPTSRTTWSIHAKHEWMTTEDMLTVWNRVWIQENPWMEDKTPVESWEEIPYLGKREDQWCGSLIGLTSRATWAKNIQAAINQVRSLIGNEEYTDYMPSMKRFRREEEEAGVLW
Chain of DNA dC->dU-editing enzyme APOBEC-3A (P31941 whole entry): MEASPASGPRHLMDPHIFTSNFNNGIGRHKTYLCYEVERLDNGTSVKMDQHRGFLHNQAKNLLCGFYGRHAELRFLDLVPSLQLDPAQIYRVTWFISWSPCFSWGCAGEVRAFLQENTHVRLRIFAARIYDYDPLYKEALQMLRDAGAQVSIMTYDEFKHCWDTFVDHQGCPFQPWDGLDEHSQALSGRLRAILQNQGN
Chain of Phosphomannomutase 2 (O15305 whole entry): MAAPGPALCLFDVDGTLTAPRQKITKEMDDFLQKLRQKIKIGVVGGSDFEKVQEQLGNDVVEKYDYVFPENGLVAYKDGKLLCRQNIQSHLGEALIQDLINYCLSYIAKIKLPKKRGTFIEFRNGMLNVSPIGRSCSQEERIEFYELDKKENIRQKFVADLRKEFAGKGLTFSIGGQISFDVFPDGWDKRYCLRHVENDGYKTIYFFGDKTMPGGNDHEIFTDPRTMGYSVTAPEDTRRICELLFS

For `Cc1ccc(C)n1-c1n[nH]c(=S)[nH]1`, which IC50 [1] is on record?
The IC50 was > 100 µM (inactive).

And the IC50 [2]?
The IC50 was 6.12 µM (active).

What about the IC50 [3] of the same molecule?
Its IC50 is 13.7 µM (active).

And the IC50 [4]?
Its IC50 is 41.8 µM (active).

What about the IC50 [5] of the same molecule?
Its IC50 is > 100 µM (inactive).

For `Cc1ccc(C(C)C)c(OCc2n[n+](CC(=O)c3ccc(OC(F)F)cc3)c3n2CCCCC3)c1`, which EC50 [6] is on record?
The EC50 was 0.74 µM (active).

What about the IC50 [7] of the same molecule?
The IC50 was 1.13 µM (active).

And the IC50 [8]?
The IC50 was 1.27 µM (active).

What about the EC50 [9] of the same molecule?
The EC50 was > 150 µM (inactive).

And the AC50 [10]?
The AC50 was 5.68 µM (active).

What about the AC50 [11] of the same molecule?
Its AC50 is 9.17 µM (active).

And the AC50 [12]?
Its AC50 is 20.1 µM (active).

What about the AC50 [13] of the same molecule?
The AC50 was 3.09 µM (active).

Which IC50 [14] does the source give for `O=C1Nc2ccc(Br)cc2/C1=C1/SC(=S)N(NS(=O)(=O)c2ccccc2)C1=O` here?
The IC50 was 23.6 µM (active).

And the AC50 [15]?
Its AC50 is 12.2 µM (active).

And the IC50 [16]?
The IC50 was < 1 µM (active).

What about the IC50 [17] of the same molecule?
The IC50 was 3 µM (not active).

Which results are given for `NC(Cc1ccc(C(F)(F)F)cc1)c1csc(NC(=O)Nc2ccccc2Oc2ccccc2)n1` (stereo not given)?
EC50 [18]: > 59.6 µM (inactive); EC50 [19]: > 59.6 µM (inactive)

Which AC50 [20] does the source give for `COc1ccc(/C=N/Nc2cc(=O)n(C)c(=O)n2C)cc1OC` here?
The AC50 was 7.21 µM (active).
